{
  "source": "patent US12161694B2",
  "about": "“Methods and compositions for regulating innate lymphoid cell inflammatory responses” (The Broad Institute, Inc., priority 2017, dated 2024)",
  "tested_on": "Th2 cells",
  "test": "T cell in vitro culture (Th2 differentiation), Il5/Il13 qPCR",
  "assay_type": "cell-based, mouse",
  "conditions": "Th2 cells cultured with or without NMU 1 μg/ml",
  "method": "Quantitative real-time PCR. RNA was isolated using RNeasy Plus Mini Kit (Qiagen) and reverse transcribed to cDNA with iScript cDNA Synthesis Kit (Bio-Rad). Gene expression was analyzed by quantitative real-time PCR on a ViiA7 System (Thermo Fisher Scientific) using TaqMan Fast Advanced Master Mix (Thermo Fisher Scientific) with the following primer/probe sets: IL-5 (Mm00439646_m1), IL-13 (Mm00434204_m1), IL-17RB (Mm00444709_m1), Nmur1 (Mm04207994 m1), Nmur2 (Mm00600704_m1), and β-Actin (Applied Biosystems). Expression values were calculated relative to β-Actin detected in the same sample by duplex qPCR.\nT cell in vitro culture. CD4^+ T cells were isolated as described previously^4 and sorted for naive T cells (CD4^+ CD62L^+ CD44^low) on a FACS Aria. Naive T cells were cultured in the presence of plate-bound anti-CD3 (1 μg/ml; Bio X Cell) and anti-CD28 (1 μg/ml; Bio X Cell) antibodies. […]\nQuantitative real-time PCR. […] Gene expression was analyzed by quantitative real-time PCR on a ViiA7 System (Thermo Fisher Scientific) using TaqMan Fast Advanced Master Mix (Thermo Fisher Scientific) with the following primer/probe sets: Il5 (Mm00439646_m1), Il13 (Mm00434204_m1), Il17rb (Mm00444709_m1), Nmur1 (Mm04207994_m1), Nmur2 (Mm00600704_m1), Nmu (Mm00479868_m1) and Actb (Applied Biosystems). Expression values were calculated relative to Actb detected in the same sample by duplex qPCR. […]",
  "note": "Entries after “also recorded” stand apart in the source; their conditions may differ. Where no end group is shown, it is not given here.",
  "data": [
    {"substance": "Neuromedin U (FRVDEEFQSPFASQSRGYFLFRPRN-NH2; listed as Homo sapiens) [NMU, neuropeptide ligand of Nmur1 (US Biological)]", "values": [
      {"measurement": "Il5 and Il13 expression in Th2 cells", "result": "not observed; also recorded: similar; also recorded: did not affect; also recorded: does not alter"}
    ]}
  ]
}
